Patent US20130045203A1, “Uses of Noscapine and Derivatives in Subjects Diagnosed with FAP” (EMORY UNIVERSITY, priority 2010, published 2013)
Entries after “also recorded” stand apart in the source; their conditions may differ. Blank lines part the entries; values can stand above or below the compound they belong to.

Key:
Apc^Min/+ mice = assay: Intestinal polyp/adenoma study in Apc^Min/+ mice; assay type: in vivo, mouse; details: for adenoma load, distal intestine: control 12.5±2.9; for adenoma load, distal intestine / adenoma load, proximal intestine: p<0.01; for adenoma load, proximal intestine: control 32.2±2.3
Method: Mice were treated either with the vehicle solution alone (control) or 150 mg/kg body weight of 9-bromonoscapine. The mice were analyzed for the number of polyps throughout the gastrointestinal tract of animals. […] Representative bright filed micrographs of hematoxylin and eosine stained 5 μm cross sections from the intestine of vehicle treated control group (FIG. 3A ii, left panel) and 9-bromonoscapine treated group (FIG. 3A ii, right panel) show hyperplastic tissue lesions. In 9-bromonoscapine treated animals, the lesions were not clustered and, when found, seem much more restricted to the individual microvilli and were subdued in appearance (FIG. 3A ii, right panel).
To distinguish between neopolyposis post-treatment versus the growth of apparently existing polyps, two treatment regimens were followed. Treated 1: 9-bromonoscapine oral treatment (150 mg/kg body weight) began after 8 weeks of age and continued daily for 12 weeks prior to the experimental end point (in 20 weeks): Treated 2: 9-bromonoscapine oral administration began 21 days after birth at the same dose level for time matched period until the experimental end point. At this time, animals were euthanized and the entire GI tract was dissected out and flushed with PBS. The intestine was then removed from the colon and cut into three equal segments: proximal, medial, and distal. The colon and all three segments of the intestine were cut open longitudinally, stained with methylene blue prior to examination under a dissecting microscope fitted with a micrometer to aid the measurements. The vertex and co-vertex of each elliptical lesion was measured. The area was then calculated by multiplying the vertex, co-vertex and π (3.14). […] There was no visible difference between the groups of treated 1 and treated 2. The colonic adenomas are known to be rare in Apc^Min/+ mouse models.

[1] = tested on: β-catenin activity in HCT116 cells; assay: Tcf4/β-catenin responsive luciferase reporter assay; assay type: cell-based; details: 8 hours after treatment
Text: (§1) HCT116 cells harbor an in-frame deletion of one phosphorylation site (Ser^45) in β-catenin that renders is partially active but has wild type APC. […] Because β-catenin is a negative regulator of CDKs inhibitor p21, p21 levels will rise upon restored downregulation of β-catenin and the cell cycle progression will be inhibited allowing cellular apoptosis (FIG. 2A). […] Hohla et al., Cell Cycle, 2009, 8(19):3149-3156.
(§2) This decrease in β-catenin levels does translate in reduction of its activity. A reporter gene luciferase under the control of three cloned copies of a conserved Tcf4/β-catenin responsive element was used and compared with an internal control, i.e., another reporter Renilla activity driven by a (β-catenin independent) promoter (CMV) in all three cell types tested (HCT116, DLD, Apc^Min/+ MEFs).

[2] = tested on: β-catenin activity in DLD1 cells; assay: as above; assay type: cell-based; details: p<0.01
Text: as §1, §2

Apc^Min/+ MEFs [3] = assay: Annexin V-Alexa Fluor488 / propidium iodide apoptosis FACS; assay type: cell-based, mouse; details: 50 μM, 48 hour treatment
Method: (§3) Apoptotic cells that externalize the normal internal membrane lipid, phosphatidylserine, were analyzed by binding a fluorescently conjugated PS-binding protein, Annein V-Alexa Fluor488. These cells can be distinguished from the late apoptotic cells that also allow the DNA dye, Propidium iodide (PI) to penetrate the cell membranes allowing intracellular DNA to bind it. As shown in FIG. 1D i-ii, 73% of Apc^Min/+ MEFs were in early and late stages of apoptosis after a 48 hour treatment with 9-bromonoscapine (50 μM) as compared to a modest 21.6% WT MEFs under identical treatment regimen (FIG. 1D i-ii). 9-Bromonoscapine causes a selective cell death (apoptosis) in MEFs isolated from Apc^Min/+ mice when compared to the WT MEFs providing a therapeutic window from 5-50 μM range.

WT MEFs [4] = assay: as above; assay type: cell-based, mouse; details: 50 μM, 48 hour treatment
Method: as §3

WT MEFs [5] = assay: FACS analysis of DNA content; assay type: cell-based, mouse
[6] = tested on: β-catenin levels in Apc^Min/+ MEFs; assay: Quantitative western blot of β-catenin levels; assay type: cell-based, mouse
Apc^Min/+ MEFs [7] = assay: Confocal microscopy of MT arrays and chromosomes; assay type: cell-based, mouse; details: 48 hours of treatment, no recovery after drug removal
[8] = Toxicology: histopathology, organ function, hematology; assay type: in vivo, mouse
Method: Hematoxylin and eosin stained 5 μm sections of paraffin-embedded brain, lung, liver, kidney, thymus, spleen, heart, and sciatic nerve tissues were analyzed. […] Organ associated toxicity was assessed by measuring organ functions in vehicle-treated and 9-bromonoscapine treated groups. Liver function tests (total bilirubin, alanine transaminase, aspartate aminotransferase, and alkaline phosphate levels) and renal functions tests (blood urea nitrogen and creatinine levels) were similar between drug treated and vehicle-treated groups.

Apc^Min/+ MEFs [9] = assay: FACS analysis of DNA content; assay type: cell-based, mouse
tubulin = details: without changing total microtubule polymer mass; cited from earlier work
WT MEFs [10] = assay: Confocal microscopy of MT arrays and chromosomes; assay type: cell-based, mouse; details: reversed 24 hours after withdrawal
Apc^Min/+ MEFs [11] = assay: Trypan blue exclusion viable/dead cell count; assay type: cell-based, mouse
Method: (§4) Murine embryonic fibroblasts (MEFs) isolated from Apc^Min/+ mice and wild type mice were treated with either vehicle solution of DMSO or varying concentrations of 9-bromonoscapine for 48 hours. Viable and dead cells were counted in triplicate using exclusion of the vital dye, trypan blue. […] This provided a therapeutic window (5-50 μM) for selective killing of Apc^Min/+ MEFs while causing minimal damage to the WT MEFs (FIG. 1A).

WT MEFs [12] = assay: Trypan blue exclusion viable/dead cell count; assay type: cell-based, mouse; details: 48 hours
Method: as §4

[13] = tested on: β-catenin activity in Apc^Min/+ MEFs; assay: Tcf4/β-catenin responsive luciferase reporter assay; assay type: cell-based, mouse
Text: as §1, §2

[14] = tested on: cyclin D1, c-Myc, p21, cleaved caspase-3; assay: Quantitative western blot of β-catenin target proteins and cleaved caspase-3; assay type: cell-based, mouse
Text: Positively responsive target genes cyclin-D l and c-Myc, and the negatively responsive gene, p21, respond with the restoration of partial loss of function by depleted APC activity after 9-bromonoscapine treatment. […] Furthermore, caspase-3 was activated as measured by the rising levels of cleaved active caspase-3.

[15] = Treated 1: oral 150 mg/kg daily from 8 weeks of age for 12 weeks
[16] = Treated 2: oral 150 mg/kg from 21 days after birth to end point
[17] = drug treated vs vehicle-treated

β-catenin activity lowered to ([13]; Apc^Min/+ MEFs, p<0.01): 59% | β-catenin activity (in words) ([13]; Apc^Min/+ cells): fell to half the original levels
Compound: COc1ccc2c(c1OC)C(=O)OC2C1c2c(c(Br)c3c(c2OC)OCO3)CCN1C (stereo not drawn) [9-bromonoscapine, 3-(9-bromoe-4-methoxy-6-methyl-5,6,7,8-tetrahydro-[1,3]dioxolo[4,5-g]isoquinolin-5-yl)-6,7-dimethoxyisobenzofuran-1(3H)-one]
number and overall areas of intestinal lesions (Apc^Min/+ mice; 150 mg/kg body weight, methylene blue stained intestine): pronounced decrease | apoptotic foci in lesioned tissue (cleaved caspase 3 immunohistochemistry) (Apc^Min/+ mice; 150 mg/kg, basal areas of the villus): additional copious apoptotic foci | adenoma load, distal intestine (Apc^Min/+ mice; [15]): 5.2±0.6 mm2 | adenoma load, proximal intestine (Apc^Min/+ mice; [15]): 13.7±1.4 mm^2 | adenoma load, distal intestine (Apc^Min/+ mice; [16]): 5.2±0.8 mm2 | adenoma load, proximal intestine (Apc^Min/+ mice; [16]): 11.8±0.8 mm^2 | total number of adenomas (Apc^Min/+ mice; both treatment groups (Treated 1, Treated 2) vs sham-treated controls, oral 150 mg/kg): significant decline | number of big lesions (>3 mm^2 and >1 mm^2) (Apc^Min/+ mice; size distribution bins, oral 150 mg/kg): significant decreases | adenoma within the colon (Apc^Min/+ mice; treated vs control): did not reveal any apparent differences | decline in β-catenin activity [1]: 31% | β-catenin activity lowered to [2]: 48% | cells in early and late stages of apoptosis (Apc^Min/+ MEFs [3]): 73% | cells in early and late stages of apoptosis (WT MEFs [4]): 21.6% | cell cycle distribution (DNA content) (WT MEFs [5]): a decline in G1 and a rise in G2/M | β-catenin levels [6]: two-fold decrease; also recorded: fell to half the original levels | mitotic phenotype (Apc^Min/+ MEFs [7]): highly disorganized, often multipolar mitoses | systemic homeostasis (albumin, total protein, glucose) and electrolyte balances (Na+, K+, TCO2) ([8]; among the three groups): not distinguishable profiles | tissue architecture (H&E sections of brain, lung, liver, kidney, thymus, spleen, heart, sciatic nerve) ([8]; blinded observations, treated vs vehicle): did not reveal any significant differences | liver function tests (total bilirubin, alanine transaminase, aspartate aminotransferase, alkaline phosphate levels) [8, 17]: similar | renal functions tests (blood urea nitrogen and creatinine levels) [8, 17]: similar | WBC, RBC counts, hemoglobin concentration, hematocrit, platelet counts ([8]; treated vs vehicle): no significant differences | cell cycle distribution (DNA content) (Apc^Min/+ MEFs [9]): a decline in G1 and a rise in G2/M | sub-G1 DNA content (Apc^Min/+ MEFs [9]; 48 hours of treatment): distinct shift of cells to a sub-G1 DNA content of <2N | tubulin binding affinity relative to noscapine (tubulin): higher affinity than noscapine | mitotic phenotype (WT MEFs [10]): typical mitotic arrest with bipolar prometaphase spindles | IC50 (Apc^Min/+ MEFs [11]; Apc^Min/+ MEFs, 48 hours, trypan blue exclusion): 28.6 µM | therapeutic window for selective killing of Apc^Min/+ MEFs (Apc^Min/+ MEFs [11]; minimal damage to WT MEFs): 5 to 50 µM | sensitivity of Apc^Min/+ MEFs relative to WT MEFs (Apc^Min/+ MEFs [11]; ratio of IC50 values, 48 hours): 4.7 times | IC50 (WT MEFs [12]): 135 µM | c-Myc protein level [14]: down | caspase-3 activation (cleaved active caspase-3) [14]: activated | cyclin D1 protein level [14]: down | p21 level [14]: elevated

Compound: COc1ccc2c(c1OC)C(=O)OC2C1c2c(cc3c(c2OC)OCO3)CCN1C (stereo not drawn) [noscapine, 3-(4-methoxy-6-methyl-5,6,7,8-tetrahydro-[1,3]dioxolo[4,5-g]isoquinolin-5-yl)-6,7-dimethoxyisobenzofuran-1(3H)-one]
cell cycle distribution (DNA content) (WT MEFs [5]): reversible G2/M arrest
